Experimental data from ChEMBL document CHEMBL1201862, “PubChem BioAssay data set” (2004).
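1) Cells in 96-well plates. 2) Compound, 48 h, 5 concentrations. 3) Linear interpolation between surrounding doses. 4) Unreached endpoint = highest concentration. At the GI50, growth is halved.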 The source made the active and inactive calls. Cut-off read from the data, not from the text of the source: active = GI50 up to about 1.1 µM and inactive = higher.

What was measured:
Assay in all cases: NCI tumour cell line growth inhibition, 48 h
A498 = test system: A498
BT-549 = test system: BT-549
DU-145 = test system: DU-145
EKVX = test system: EKVX
HCT-116 = test system: HCT-116
NCI-H226 = test system: NCI-H226
NCI-H460 = test system: NCI-H460
NCI/ADR-RES = test system: NCI/ADR-RES
OVCAR-3 = test system: OVCAR-3
SK-MEL-28 = test system: SK-MEL-28
SK-MEL-2 = test system: SK-MEL-2
SK-MEL-5 = test system: SK-MEL-5
SK-OV-3 = test system: SK-OV-3
SNB-75 = test system: SNB-75
SW-620 = test system: SW-620
T47D = test system: T47D
TK-10 = test system: TK-10
UACC-257 = test system: UACC-257

COc1ccc2c(c1)-c1nc(=S)n(CCCN(C)C)c3ccc([N+](=O)[O-])c(c13)N2
GI50 (A498): 4.09 µM (inactive)
GI50 (BT-549): 7.21 µM (inactive)
GI50 (DU-145): 0.689 µM (active)
GI50 (EKVX): 0.805 µM (active)
GI50 (HCT-116): 0.224 µM (active)
GI50 (NCI-H226): 1.36 µM (inactive)
GI50 (NCI-H460): 0.358 µM (active)
GI50 (NCI/ADR-RES): 1.25 µM (inactive)
GI50 (OVCAR-3): 1.59 µM (inactive)
GI50 (SK-MEL-28): 1.13 µM (inactive)
GI50 (SK-MEL-2): 14.7 µM (inactive)
GI50 (SK-MEL-5): 1.14 µM (inactive)
GI50 (SK-OV-3): 1.11 µM (active)
GI50 (SNB-75): 6.32 µM (inactive)
GI50 (SW-620): 0.344 µM (active)
GI50 (T47D): 18.7 µM (inactive)
GI50 (TK-10): 2.8 µM (inactive)
GI50 (UACC-257): 1.22 µM (inactive)

CCOC(=O)c1c(N2CCOCC2)ncn(-c2cccc(Cl)c2)c1=O
GI50 (A498): 0.159 µM (active)
GI50 (BT-549): > 100 µM (inactive)
GI50 (DU-145): > 100 µM (inactive)
GI50 (EKVX): > 100 µM (inactive)
GI50 (HCT-116): > 100 µM (inactive)
GI50 (NCI-H226): > 100 µM (inactive)
GI50 (NCI-H460): > 100 µM (inactive)
GI50 (NCI/ADR-RES): > 100 µM (inactive)
GI50 (OVCAR-3): > 100 µM (inactive)
GI50 (SK-MEL-28): > 100 µM (inactive)
GI50 (SK-MEL-2): > 100 µM (inactive)
GI50 (SK-OV-3): > 100 µM (inactive)
GI50 (SNB-75): > 100 µM (inactive)
GI50 (SW-620): > 100 µM (inactive)
GI50 (T47D): > 100 µM (inactive)
GI50 (TK-10): > 100 µM (inactive)
GI50 (UACC-257): > 100 µM (inactive)

CN(C)c1ccc(C2CC(c3ccc4ccccc4c3O)=NN2c2ccc([N+](=O)[O-])cc2[N+](=O)[O-])cc1 (stereo not drawn)
GI50 (A498): 68.4 µM (inactive)
GI50 (BT-549): 91 µM (inactive)
GI50 (DU-145): 64.9 µM (inactive)
GI50 (HCT-116): 37.5 µM (inactive)
GI50 (NCI-H226): 89.5 µM (inactive)
GI50 (NCI-H460): 32.3 µM (inactive)
GI50 (NCI/ADR-RES): 43.5 µM (inactive)
GI50 (OVCAR-3): 22 µM (inactive)
GI50 (SK-MEL-28): 56 µM (inactive)
GI50 (SK-MEL-2): 25.5 µM (inactive)
GI50 (SK-OV-3): > 100 µM (inactive)
GI50 (SNB-75): > 100 µM (inactive)
GI50 (SW-620): 36.3 µM (inactive)
GI50 (T47D): 68.1 µM (inactive)
GI50 (TK-10): > 100 µM (inactive)
GI50 (UACC-257): 58.5 µM (inactive)

S=C(Nc1ccc(/N=N/c2ccccc2)cc1)SCc1ccccc1
GI50 (A498): 19.9 µM (inactive)
GI50 (BT-549): 18.3 µM (inactive)
GI50 (DU-145): 15.9 µM (inactive)
GI50 (EKVX): 24.8 µM (inactive)
GI50 (HCT-116): 14.8 µM (inactive)
GI50 (NCI-H226): 18.9 µM (inactive)
GI50 (NCI-H460): 20.2 µM (inactive)
GI50 (NCI/ADR-RES): 17.8 µM (inactive)
GI50 (OVCAR-3): 15.6 µM (inactive)
GI50 (SK-MEL-28): 18.1 µM (inactive)
GI50 (SK-MEL-2): 21.4 µM (inactive)
GI50 (SK-MEL-5): 15.7 µM (inactive)
GI50 (SK-OV-3): 38.8 µM (inactive)
GI50 (SNB-75): 18.4 µM (inactive)
GI50 (SW-620): 20.6 µM (inactive)
GI50 (T47D): 28.3 µM (inactive)
GI50 (TK-10): 12.5 µM (inactive)
GI50 (UACC-257): 16.3 µM (inactive)

CC(=O)OCC1OC(N2C(=O)CC(N)=Nc3ccccc32)C(OC(C)=O)C(OC(C)=O)C1OC(C)=O (stereo not drawn)
GI50 (A498): 62.8 µM (inactive)
GI50 (BT-549): 66.2 µM (inactive)
GI50 (DU-145): 63.4 µM (inactive)
GI50 (EKVX): 83.2 µM (inactive)
GI50 (HCT-116): 81.8 µM (inactive)
GI50 (NCI-H460): 55.5 µM (inactive)
GI50 (NCI/ADR-RES): 45.3 µM (inactive)
GI50 (OVCAR-3): 52.6 µM (inactive)
GI50 (SK-MEL-28): 38.4 µM (inactive)
GI50 (SK-MEL-2): 48.4 µM (inactive)
GI50 (SK-MEL-5): 17 µM (inactive)
GI50 (SK-OV-3): > 100 µM (inactive)
GI50 (SNB-75): 29.8 µM (inactive)
GI50 (SW-620): 87.5 µM (inactive)
GI50 (T47D): 20.5 µM (inactive)
GI50 (TK-10): 75 µM (inactive)
GI50 (UACC-257): 32.4 µM (inactive)

Cc1[nH]n(-c2ccc(S(=O)(=O)O)cc2)c(=O)c1/N=N/c1ccccc1
GI50 (A498): > 100 µM (inactive)
GI50 (BT-549): > 100 µM (inactive)
GI50 (DU-145): > 100 µM (inactive)
GI50 (EKVX): > 100 µM (inactive)
GI50 (HCT-116): > 100 µM (inactive)
GI50 (NCI-H460): > 100 µM (inactive)
GI50 (NCI/ADR-RES): > 100 µM (inactive)
GI50 (OVCAR-3): > 100 µM (inactive)
GI50 (SK-MEL-28): > 100 µM (inactive)
GI50 (SK-MEL-2): > 100 µM (inactive)
GI50 (SK-MEL-5): > 100 µM (inactive)
GI50 (SK-OV-3): > 100 µM (inactive)
GI50 (SNB-75): > 100 µM (inactive)
GI50 (SW-620): > 100 µM (inactive)
GI50 (T47D): > 100 µM (inactive)
GI50 (TK-10): > 100 µM (inactive)
GI50 (UACC-257): > 100 µM (inactive)
